From US10196601B2, “Cell culture medium and process for controlling α-amidation and/or C-terminal amino acid cleavage of polypeptides” (LEK PHARMACEUTICALS D.D., priority 2013, dated 2019)
Like-named read-outs stand apart in the source and are kept apart here.

Tests used:
CP enzyme [1] = experiment: amount of C-terminal Lys (in vivo CP activity), BR system; format: cell-based, Chinese hamster; conditions: 5 L BR
Protocol: (§1) At the end of 14 days of BR and SF bioprocesses (i.e., on day 14), harvests were sampled to 50 ml centrifuge tubes. […] Purification was done either using AKTA chromatography system with 1 ml HiTrap column (GE Healthcare, cat. no. 11-0034-93) or TECAN Freedom EVO pipetting station with 200 μl RoboColumns (Atoll, cat. no. 01050408R).
(§2) To measure the amount of C-terminal α-amidated Pro and the amount of C-terminal Lys, Cation Exchange Chromatography (CEX) was performed according to the laboratory procedure. Main charged variants were designated as 0K, pseudo 1K (1+) and pseudo 2K (2+). The positive charge refers to the Lys or α-amidated Pro at the C-terminus of the heavy chain. Charged variants (Lys, α-amidated Pro) were differentiated by CP cleavage of C-terminal Lys followed by the same CEX analysis. Structures eluting before the main three variants were designated as AP (acidic peaks) and those eluting after them as BP (basic peaks).
(§3) All experiments were performed in 5 L BRs.
To test the effect of zinc on the CP activity, three different zinc chloride concentrations were tested, namely 3.7 μM, 11 μM and 22 μM. […] In regard to productivity, a constant drop of productivity was measured with the decrease of the zinc concentration.

CHO cells [2] = conditions: 5 L BR
Protocol: All results were finally confirmed in a bioreactor (BR) system, where 5 L glass bioreactors were used.
In both the SF and BR system, the cell growth and cell viability were measured with the Vi-Cell XR analyzer (Beckman Coulter) using the trypan blue exclusion method for cell viability determination and automated cell counting for determination of the cell concentration. The monoclonal antibody content was determined by affinity liquid chromatography (ALC). A calibration curve was made by diluting the generic reference. […] The results were expressed in gram (g) of protein per liter (L) of harvest.
The obtained SF results were finally also tested in a bioreactor (BR) environment. All experiments were performed in 5 L BRs.

CP enzyme [3] = experiment: amount of C-terminal Lys of the expressed antibody (in vivo CP activity), SF system; format: cell-based, Chinese hamster
Protocol: (§4) Experiments (using different illustrative glycoproteins) were performed in shake flask (SF) systems, where […] SFs with a final volume of 125 ml were used. All experiments started by thawing of a research working cell bank (rWCB), such as CHO cell line DP-12 (CHO DP-12 clone #1934 [CHO DP-12, clone #1934 aIL8.92 NB 28605/14] (ATCC® CRL-12445™) producing recombinant human anti-IL-8 or CHO-SSF cells expressing a monoclonal antibody directed to tumour necrosis factor, TNF (see PCT/EP2011/074181 for further details) followed by several subcultivations under standard conditions according to manufacture instructions until enough cells for the inoculation were available For all experiments, a 14 days generic fed batch fermentation was used and a generic feeding regime comprising feeding of glucose, glutamine and amino acids was performed. All SFs were incubated in a shaker incubator (Kuhner, Switzerland) at the following conditions: temperature of 36.5° C., CO2=10% and shaking speed 200 rpm.
as §1, §2
(§5) The experiment was performed in 500 ml SF with a final volume of 125 ml. After 14 days of fed batch bioprocess, harvests were collected, centrifuged, sterile filtered through a PES membrane and immediately subjected to a single step affinity chromatography (AC) purification and a subsequent analysis of C-terminal α-amidation by […]. Design Expert version 7.1.3 (Stat-Ease, Inc., Minneapolis, USA) was used to build the response surface design and to perform the statistical analysis of the experimental results. A MinRes IV design was used to determine the influence of the tested trace elements on cell productivity, C-terminal α-amidation and C-terminal carboxypeptidation of the investigated monoclonal antibody. Analyzed design expert (Stat-Ease, Inc., Minneapolis, USA) responses included end of fed-batch titer, amount of C-terminal α-amidated Pro and amount of C-terminal Lys.
(§6) The experiment was performed in 500 ml SF with a final volume of 125 ml. After 14 days of fed batch bioprocess, harvests were collected, centrifuged, sterile filtered through a PES membrane and immediately subjected to a single step AC purification and a subsequent analysis of C-terminal α-amidation by […].
(§7) After performing the above described analytical steps, the measured values were inserted into the DOE program and analyzed. The α-value of statistical significance was set to 0.100, which means that factors with a P-value higher than 0.100 were excluded from the statistical mode since they were non-significant.

[4] = tested on: CHO cells expressing a monoclonal antibody; experiment: titer in 5 L bioreactor (BR) fed batch culture; format: cell-based, Chinese hamster; conditions: 5 L BR
Protocol: as §3

[5] = tested on: CHO cells expressing a monoclonal antibody; experiment: end of fed-batch titer in shake flask (SF) fed batch culture; format: cell-based, Chinese hamster
Protocol: as §4, §5
Effects that were above the Bonferroni limit were certainly significant and effects that were above the t-Value limit were possibly significant. Effects that were below the t-Value limit were not selected as they were not significant. After selecting significant effects, the ANOVA statistical program was employed to confirm that only statistically significant effects were included in the model.
as §6, §7

PAM enzyme [6] = experiment: amount of C-terminal α-amidated Pro of the expressed antibody (in vivo PAM activity), SF system; format: cell-based, Chinese hamster
Protocol: as §4, §1, §2, §5, §6, §7

PAM enzyme [7] = experiment: amount of C-terminal α-amidated Pro (in vivo PAM activity), BR system; format: cell-based, Chinese hamster; conditions: 5 L BR
Protocol: as §1, §2, §3

CHO cells [8] = experiment: cell viability in SF culture (trypan blue exclusion); format: cell-based, Chinese hamster; conditions: experiment 2, SF; selenium 3 μM (data not shown)
Protocol: Experiments (using different illustrative glycoproteins) were performed in shake flask (SF) systems, where […] SFs with a final volume of 125 ml were used.
as §6

In the case of [Cl-].[Cl-].[Zn+2] [zinc, zinc chloride], the “C-terminal Lys” value (CP enzyme [1]; 3.7 μM zinc (FIG. 14)) was 6%, the “C-terminal Lys” value (CP enzyme [1]; 22 μM zinc (FIG. 14)) was 3.15% and the cell culture growth (CHO cells [2]; 3.7 μM zinc (FIG. 13A)) was “significantly lower growth”. For the same compound, the cell culture growth (CHO cells [2]; 11 μM compared with 22 μM zinc (FIG. 13A)) was “well comparable”, the “amount of C-terminal Lys” value (CP enzyme [3]; confirmation, SF, three parallels, 2.3 μM zinc (FIG. 10B)) was 15.97%±0.79% and the “amount of C-terminal Lys” value (CP enzyme [3]; confirmation, SF, three parallels, unchanged in-house medium, 22 μM zinc (FIG. 10B)) was 1.99%±0.08%. For the same compound, the “amount of C-terminal Lys” value (CP enzyme [3]; experiment 1, SF, 10-fold increased zinc (FIG. 6)) was 8.5%, the “amount of C-terminal Lys” value (CP enzyme [3]; experiment 1, SF, before 10-fold increase of zinc (FIG. 6)) was 22% and the “amount of C-terminal Lys” value (CP enzyme [3]; experiment 2, DOE model, zinc 0.15 μM (FIG. 9)) was 15%. For the same compound, the “amount of C-terminal Lys” value (CP enzyme [3]; experiment 2, DOE model, zinc 5.00 μM (FIG. 9)) was 5%, the final titer ([4]; highest zinc concentration, 22 μM (FIG. 13B)) was 3.86 g/L and the final titer ([4]; lowest zinc concentration, 3.7 μM (FIG. 13B)) was 1.86 g/L. For the same compound, the final titer ([4]; zinc 11 μM (FIG. 13B)) was 2.90 g/L, the titer ([5]; experiment 1 (MinRes IV), SF, 14 days fed batch, zinc 2.201 μM) was 0.4 g/L and the titer ([5]; experiment 1, SF, zinc 22.012 μM) was 0.6 g/L. The titer ([5]; experiment 2 (central composite design), DOE model, zinc 7 μM (FIG. 7)) was 0.4 g/L and the titer ([5]; experiment 2, DOE model, zinc 12 μM (FIG. 7)) was “above 0.6 g/L”.

For [Cl][Cu][Cl] [copper, copper chloride], the “increase of amount of C-terminal α-amidated Pro” value (PAM enzyme [6]; experiment 1, SF, 10-fold increased copper (FIG. 4)) was 2.5%, the “amount of C-terminal α-amidated Pro” value (PAM enzyme [6]; experiment 2, DOE model, copper 0.06 μM) was 2.1% and the “amount of C-terminal α-amidated Pro” value (PAM enzyme [6]; experiment 2, DOE model, copper 0.18 μM) was 2.2%.

O=[Se]([O-])[O-].[Na+].[Na+] [selenium, sodium selenite] was tested, and the “amount of C-terminal α-amidated Pro” value (PAM enzyme [6]; experiment 1, SF, 10-fold increased selenium (FIG. 4)) was 4.5%, the “amount of C-terminal α-amidated Pro” value (PAM enzyme [6]; experiment 1, SF, before 10-fold increase of selenium (FIG. 4)) was 6.5% and the “amount of C-terminal α-amidated Pro” value (PAM enzyme [6]; experiment 2, selenium 0.17 μM (FIG. 8)) was 2.2%. For the same compound, the “amount of C-terminal α-amidated Pro” value (PAM enzyme [6]; experiment 2, selenium 3.00 μM (FIG. 8)) was 1.26%, the titer decrease ([4]; 2.31 μM versus 0.17 μM selenium (FIG. 11B)) was 1 g/L and the “C-terminal α-amidated Pro” value (PAM enzyme [7]; 0.17 μM selenium (FIG. 12)) was 9.3%. For the same compound, the “C-terminal α-amidated Pro” value (PAM enzyme [7]; 2.31 μM selenium (FIG. 12)) was 2.25%, the titer ([5]; experiment 1, SF, selenium 0.017 μM) was 0.4 g/L and the effect on titer ([5]; experiment 2, SF, selenium above 3 μM (FIG. 7)) was “titer decrease”. For the same compound, the viability (CHO cells [8]) was “below 80%”.
